Results taken from ChEMBL document CHEMBL3994651, “Physapubescin, a natural withanolide as a kidney-type glutaminase (KGA) inhibitor” (Bioorg Med Chem Lett, 2017).
Activity calls are given as the source filed them. The rule behind the calls is not given here.

How the values were obtained:
[1] = tested on: HT-1080; assay: Cytotoxicity against human HT1080 cells assessed as growth inhibition after 48 hrs by CCK8 assay; assay type: functional, cell-based; conditions: HT-1080, 48 h
[2] = tested on: HCC827; assay: Cytotoxicity against human erlotinib-resistant HCC827 cells assessed as growth inhibition after 48 hrs by CCK8 assay; assay type: functional, cell-based; conditions: HCC827, 48 h
[3] = molecular target: T1, Glutaminase kidney isoform, mitochondrial (Homo sapiens, UniProt O94925); assay: Inhibition of recombinant KGA (unknown origin) using glutamine as substrate
T1 sequence (O94925 whole entry): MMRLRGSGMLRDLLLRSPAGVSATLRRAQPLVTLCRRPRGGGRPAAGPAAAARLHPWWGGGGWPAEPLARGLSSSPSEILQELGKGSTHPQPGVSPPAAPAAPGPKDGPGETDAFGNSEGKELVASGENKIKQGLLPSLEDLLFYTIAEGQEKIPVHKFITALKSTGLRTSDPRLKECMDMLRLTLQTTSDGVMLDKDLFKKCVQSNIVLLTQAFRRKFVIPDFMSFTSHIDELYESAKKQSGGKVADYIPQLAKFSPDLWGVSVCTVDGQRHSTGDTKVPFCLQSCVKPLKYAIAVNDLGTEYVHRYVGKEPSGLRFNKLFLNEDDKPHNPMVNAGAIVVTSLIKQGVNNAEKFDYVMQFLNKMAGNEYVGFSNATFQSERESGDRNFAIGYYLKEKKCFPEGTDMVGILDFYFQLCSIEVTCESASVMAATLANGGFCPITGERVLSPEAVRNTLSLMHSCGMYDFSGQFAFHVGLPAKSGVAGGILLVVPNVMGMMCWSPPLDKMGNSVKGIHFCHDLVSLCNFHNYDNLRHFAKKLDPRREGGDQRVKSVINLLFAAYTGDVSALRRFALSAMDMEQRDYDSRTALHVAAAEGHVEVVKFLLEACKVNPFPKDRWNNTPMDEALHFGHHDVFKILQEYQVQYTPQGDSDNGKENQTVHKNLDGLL

[4] = tested on: L929; assay: Cytotoxicity against mouse L929 cells assessed as growth inhibition after 48 hrs by CCK8 assay; assay type: cell-based; conditions: L929, 48 h
[5] = tested on: L02; assay: Cytotoxicity against human LO2 cells assessed as growth inhibition after 48 hrs by CCK8 assay; assay type: cell-based; conditions: L02, 48 h
[6] = molecular target: T2, Glutaminase kidney isoform, mitochondrial (Homo sapiens) (UniProt O94925); assay: Competitive inhibition of recombinant KGA (unknown origin) at 40 uM using varying levels of glutamine substrate measured within 1 to 4 mins
T2 sequence (whole entry): T1 sequence (O94925 whole entry)

[7] = molecular target: T1, Glutaminase kidney isoform, mitochondrial; assay: Binding affinity to NT-647-NHS-labelled KGA (unknown origin) after 10 mins by microscale thermophoresis method
[8] = tested on: Vero; assay: Cytotoxicity against monkey Vero cells assessed as growth inhibition after 48 hrs by CCK8 assay; assay type: cell-based; conditions: Chlorocebus sabaeus

IC50 [3]	inhibition [6]	Kd [7]	SMILES	IC50 [1]	IC50 [2]	IC50 [4]	IC50 [5]	IC50 [8]
> 100 µM	–	–	CO[C@@H]1O[C@@H]([C@@H](C)[C@H]2CC[C@H]3[C@@H]4CC=C5C[C@@H](O[C@@H]6O[C@H](CO[C@@H]7O[C@H](CO)[C@@H](O)[C@H](O)[C@H]7O)[C@@H](O)[C@H](O)[C@H]6O)C[C@H](O)[C@]5(C)[C@H]4CC[C@]23C)C[C@](C)(OC)[C@]1(C)O	> 200 µM	> 200 µM	–	–	–
> 100 µM	–	–	C[C@@H]([C@H]1CC[C@H]2[C@@H]3CC=C4C[C@@H](O[C@@H]5O[C@H](CO[C@@H]6O[C@H](CO)[C@@H](O)[C@H](O)[C@H]6O)[C@@H](O)[C@H](O)[C@H]5O)C[C@H](O)[C@]4(C)[C@H]3CC[C@]12C)[C@H]1C[C@@](C)(O)[C@](C)(O)C(O)O1 (some centres not stated)	> 200 µM	> 200 µM	–	–	–
> 100 µM	–	–	C[C@@H]([C@H]1CC[C@H]2[C@@H]3CC=C4C[C@@H](O)C[C@H](O)[C@]4(C)[C@H]3CC[C@]12C)[C@H]1C[C@](C)(O)[C@](C)(O)C(=O)O1	> 200 µM	> 200 µM	–	–	–
> 100 µM	–	–	C[C@@H]([C@H]1CC[C@H]2[C@@H]3CC=C4C[C@@H](O)C[C@H](O)[C@]4(C)[C@H]3CC[C@]12C)[C@H]1C[C@@](C)(O)[C@](C)(O)C(O)O1 (some centres not stated)	> 200 µM	> 200 µM	–	–	–

Further lines, the compound ahead of its results:

SMILES	IC50 [3]	inhibition [6]	Kd [7]	IC50 [1]	IC50 [2]	IC50 [4]	IC50 [5]	IC50 [8]
CC(=O)O[C@H]1C[C@H]([C@H](C)[C@H]2C[C@]3(C)O[C@]3(C)[C@H](O)O2)[C@@]2(C)CC[C@H]3[C@@H](C[C@@H]4O[C@]45[C@@H](O)C=CC(=O)[C@]35C)[C@H]12	9.89 µM	Active	4.95 µM	6.99 µM	2.76 µM	10.4 µM	10.4 µM	12.4 µM
O=C(Cc1cccc(OC(F)(F)F)c1)Nc1ccc(CCCCc2nnc(NC(=O)Cc3ccccn3)s2)nn1	–	–	–	44.4 µM	51.4 µM	–	–	–
O=C(Cc1ccccc1)Nc1nnc(CCSCCc2nnc(NC(=O)Cc3ccccc3)s2)s1	–	–	–	47.7 µM	42.4 µM	–	–	–
C[C@@H]([C@H]1CC[C@H]2[C@@H]3CC=C4C[C@@H](O[C@@H]5O[C@H](CO[C@@H]6O[C@H](CO)[C@@H](O)[C@H](O)[C@H]6O)[C@@H](O)[C@H](O)[C@H]5O)C[C@H](O)[C@]4(C)[C@H]3CC[C@]12C)[C@H]1C[C@](C)(O)[C@](C)(O)C(=O)O1	> 100 µM	–	–	> 200 µM	> 200 µM	–	–	–
